{
  "source": "patent US20180318383A1",
  "about": "“PEPTIDE HAVING NEURONAL LOSS PREVENTION AND REGENERATION EFFECTS, AND COMPOSITION CONTAINING SAME” (GEMVAX & KAEL CO., LTD., priority 2015, published 2018)",
  "key": {"Tau": {"system": "Tau", "experiment": "NFT generation (Tau expression) in 3XTg-AD mice (western blotting, immunostaining)", "format": "in vivo", "conditions": "hippocampus and whole brain; vs control and Donepezil", "description": "(§1) To test the efficacy of PEP1 on AD, AD transgenic mice (3XTg-AD) were purchased from Jackson Laboratory. Genetic characteristics of the transgenic mice are as follows: B6; 129-Psen1tm1Mpm Tg(APPSwe, tauP301L)1Lfa/Mmjax. […] One week after mice were confirmed as pregnant, new mice were delivered and weaned for 3 weeks. Two weeks later, mature mice were obtained.\n(§2) During the preliminary breeding and the entire period of the experiment, a temperature was maintained at 23±2° C. and a relative humidity was maintained at 60±10%, and then the mice were raised under a 12-hour dark/light cycle. Experimental animals were divided into five groups, and each group included 10 animals. The divided experimental groups are as follows. […]\n(§3) The PEP1, physiological saline, donepezil and scramble peptide were subcutaneously injected at each concentration three times a week for two months from the age of 12 months, and then two months after the injection, cognitive/memory behavior tests (passive avoidance test and Y maze test) were performed to examine a degree of improvement in cognitive function and memory function. After the brain was extracted to separate the hippocampus, the amounts of amyloid beta in the hippocampus and the whole brain, and the amounts of an amyloid beta oligomer and NFT generated by tau hyperphosphorylation were determined by western blotting and immunostaining. […]"}, "[1]": {"conditions": "numerous clinical trials targeting various diseases; cited from earlier work"}, "β-amyloid": {"system": "β-amyloid", "experiment": "Expression levels of all types of Aβs in 3XTg-AD mice (western blotting)", "format": "in vivo", "conditions": "hippocampus and whole brain; vs control and Donepezil", "description": "as §1, §2, §3"}, "NSCs [2]": {"system": "NSCs", "experiment": "ATP assay", "format": "cell-based, rat", "conditions": "20 μM Aβ25-35 + PEP1", "excerpt": "An ATP concentration was observed using an ATP determination kit and evaluated by an ELISA reader."}, "NSCs [3]": {"system": "NSCs", "experiment": "NSC differentiation in bFGF-free N2 medium (immunostaining)", "format": "cell-based, rat", "conditions": "Aβ25-35 increased GFAP-positive and decreased NeuN-positive cells", "description": "NSC differentiation was induced by changing the cell culture medium to a bFGF (10 ng/ml)-free N2 medium, and the medium was exchanged daily.\nImmunostaining was carried out to confirm intracellular expression and locations. For immunostaining, the following antibodies were used: Ki67 (1:100 Abcam), rabbit anti-doublecortin (1 mg/mL; Abcam), rabbit anti-glial fibrillary acidic protein (GFAP) (1:5000; Abcam), rabbit anti-Tuj1 (1 mg/mL; Abcam), mouse anti-GalC (1 mg/mL; Millipore), and rabbit anti-HMGB1 (1:100; Cell Signaling Technology).\nHowever, in a large number of GFAP-positive cells and NeuN-positive cells, such immune responses were increased after differentiation."}},
  "data": [
    {"sequence": "EARPALLTSRLRFIPK (homo sapiens) [PEP1, hTERT-derived peptide consisting of 16 amino acids, telomerase location [611-626]]", "values": [
      {"measurement": "expression level of Tau", "setting": "Tau", "result": "decreased"},
      {"measurement": "toxicity / side effects", "setting": "[1]", "result": "stable in terms of side effects"},
      {"measurement": "expression levels of all types of Aβs", "setting": "β-amyloid", "result": "decreased"},
      {"measurement": "ATP level", "setting": "NSCs [2]", "result": "significantly restored"},
      {"measurement": "NSC differentiation into GFAP-positive and NeuN-positive cells", "setting": "NSCs [3]", "result": "the opposite effect was observed"}
    ]}
  ]
}
